Literature values, collected in patent publication US9061061B2, “Method of treating dysglycemia and glucose excursions” (ORX PHARMACEUTICAL CORPORATION, priority 2008, dated 2015).

Settings: single 850 mg tablet

lower peak plasma concentration (Cmax) with food compared to fasting: ~40%
prolongation of time to peak plasma concentration (Tmax) with food: 35 min
SMILES: CN(C)C(=N)N=C(N)N [metformin]
